# PMC11276905 (International Journal of Molecular Sciences, 2024)
# Entries after “also recorded” stand apart in the source; their conditions may differ. Read-outs that look alike come from different tables or passages of the source.
# Experiments:
# [1] = biological target: T1, isolated HNE (human neutrophil elastase) (Homo sapiens, UniProt P08246); assay: Inhibition of isolated HNE, steady-state kinetics (MeOSuc-AAPV-AMC); format: biochemical; conditions: for Ki: HNE 0.5 nM, incubated 1 h 37 °C, Morrison fit, mean ± SD, compound 5b in phosphate buffer pH 7.4; for inhibition of HNE (in words): negative controls
# T1 construct: immediately processed to its active form in the trans-Golgi before being targeted to azurophil granules; purchased Merck (Darmstadt, Germany) 324681
# T1 sequence (P08246 30-267): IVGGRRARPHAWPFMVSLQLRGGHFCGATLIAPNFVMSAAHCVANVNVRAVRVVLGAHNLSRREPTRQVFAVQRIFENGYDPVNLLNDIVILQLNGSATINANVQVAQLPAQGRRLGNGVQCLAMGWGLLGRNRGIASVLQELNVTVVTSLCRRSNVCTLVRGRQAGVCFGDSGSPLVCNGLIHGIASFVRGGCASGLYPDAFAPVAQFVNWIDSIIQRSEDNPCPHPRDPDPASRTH
# Experimental: (§1) To determine the inhibition constants of reversible inhibitors with isolated HNE and HNE in cell lysates, HNE (0.5 nM) and U937 lysates (1000 cells/µL) were incubated with serial dilutions of the compounds in assay buffer at 37 °C for ≥ 1 h. Subsequently, residual HNE activity was measured as described above and compared to the activity of uninhibited HNE. […] The inhibition curves generated were fitted to Morrisons’s equation to obtain the dissociation equilibrium constant Ki with pro-Fit (Quantum Soft, Uetikon am See, Switzerland) using a Levenberg–Marquardt algorithm.
# [2] = biological target: T2, HNE in U937 cells (Homo sapiens, UniProt P08246); assay: Intracellular HNE inhibition in cultured U937 cells (residual activity in lysates); format: cell-based; conditions: for time course of HNE inhibition in U937 cells (in words): 0-26 h culture
# T2 construct: the myeloid cell line U937, which can differentiate into neutrophils [25] and expresses HNE; host or cells: U937 (histiocytic lymphoma), undifferentiated
# T2 sequence (P08246 30-247 limits assumed): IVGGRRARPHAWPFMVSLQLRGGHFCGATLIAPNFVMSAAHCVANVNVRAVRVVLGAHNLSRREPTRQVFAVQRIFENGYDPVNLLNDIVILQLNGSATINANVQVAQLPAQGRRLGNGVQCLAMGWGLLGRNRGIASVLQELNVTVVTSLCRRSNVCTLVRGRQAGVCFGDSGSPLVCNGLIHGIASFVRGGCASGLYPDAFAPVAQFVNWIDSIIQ
# Experimental: (§2) The enzymatic activity of HNE was measured using a fluorescence-based assay in 96-well black bottom plates (Corning®, 003916, New York, NY, USA). HNE (0.5 nM) or cell lysates (20 µL, ~100 PMN/µL, ~1000 U937/µL, ~5000 HL-60/µL or ~1000 HMC-1/µL) were diluted in assay buffer (200 mM TRIS HCl, 500 mM NaCl, 0.05% Tween-20, pH 8.0). […] AMC (7-Amino-4-methylcoumarin) standard curves were generated by measuring serial dilutions of the fluorophore AMC (1 µM–0 µM) in assay buffer on the same plate and used to calculate nM AMC generation from fluorescence measurements.
# (§3) U937 cells were plated in sterile 96-U-well plates (92697, TPP, Trasadingen, Switzerland) at a density of 100 cells/µL in a cell culture medium (180 µL per well). Increasing concentrations of inhibitors and solvent controls were diluted in a culture medium and added (20 µL/well) to the 96-well plate 26 h, 6 h, 3 h, and 0 h before harvesting and lysing the cells (see below). Plates were kept at 37 °C, 5% CO2, and 95% humidity throughout the incubation period. […] Similarly, freshly isolated PMN were plated at 50–100 cells/µL in PBS (1 g/L glucose) and incubated for 1 h with inhibitors or controls.
# (§4) For cell lysis, cells were pelleted in the microtiter plates by centrifugation (400× g, 10 min, 4 °C) and washed three times in PBS (4 °C). Washed cells were then lysed by adding lysis buffer (PBS, 1 M NaCl, 0.1% Tween-20, pH 7.4) and freeze–thawing on dry ice. Finally, lysates were centrifuged (2100× g) to remove cell debris. Enzymatic activity of HNE was determined as described above, and residual activity present after incubation with inhibitors expressed as % of matched solvent controls.
# [3] = biological target: T3, HNE in U937 lysates (Homo sapiens, UniProt P08246); assay: Inhibition of HNE activity in U937 lysates; format: biochemical; conditions: U937 lysate 1000 cells/µL, incubated 1 h 37 °C, Morrison fit, mean ± SD
# T3 construct: the myeloid cell line U937, which can differentiate into neutrophils [25] and expresses HNE; host or cells: U937 (histiocytic lymphoma), undifferentiated
# T3 sequence (P08246 30-247 limits assumed): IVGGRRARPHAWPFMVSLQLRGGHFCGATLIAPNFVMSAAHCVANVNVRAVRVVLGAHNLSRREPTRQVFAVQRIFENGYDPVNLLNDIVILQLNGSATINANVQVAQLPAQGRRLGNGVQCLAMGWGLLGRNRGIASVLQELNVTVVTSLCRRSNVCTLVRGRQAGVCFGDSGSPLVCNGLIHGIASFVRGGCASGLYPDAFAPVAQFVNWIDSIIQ
# Experimental: For the quantification and characterization of HNE-like activity in cell lysates, the density of the sample cell suspension was first quantified using a CASY-1 cell counter.
# as §1
# [4] = biological target: T4, isolated HNE (Homo sapiens, UniProt P08246); assay: Formation and dissociation of the HNE/inhibitor complex (pre-steady-state kinetics); format: biochemical
# T4 construct: immediately processed to its active form in the trans-Golgi before being targeted to azurophil granules; purchased Merck (Darmstadt, Germany) 324681
# T4 sequence (P08246 30-267): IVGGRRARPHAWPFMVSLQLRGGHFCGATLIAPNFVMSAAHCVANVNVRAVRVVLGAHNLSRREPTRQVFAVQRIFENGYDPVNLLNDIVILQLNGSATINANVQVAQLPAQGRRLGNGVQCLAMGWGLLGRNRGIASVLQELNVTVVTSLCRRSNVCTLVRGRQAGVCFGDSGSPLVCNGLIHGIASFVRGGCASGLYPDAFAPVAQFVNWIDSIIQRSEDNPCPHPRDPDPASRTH
# Experimental: To determine the association rates (kon) of the inhibitors, the enzymatic activity of HNE (0.6 nM) was recorded continuously in an SFM25 fluorometer (Biotek Kontron, Neufahrn, Germany) by following the cleavage of MeOSuc-AAPV-AMC (10 µM) at 37 °C. When a constant rate was established (i.e., after 1–5 min), an inhibitor was added, and the reaction followed for up to 60 min. The pseudo-first-order rate constant kobs was obtained by fitting the observed presteady-state progress curve to the integrated equation of Morrison with pro-Fit. Apparent second-order rate constants were subsequently calculated as k2/Ki = kobs/It by linear regression from several independent experiments using a range of concentrations. For reversible inhibitors, the dissociation rate koff was subsequentially calculated as koff = Ki × kon; for irreversible inhibitors, koff is ≈ zero. Finally, the halftime of the HNE/inhibitor complex formation and dissociation were calculated as t1/2,on = 0.693/(kass × It + koff) and t1/2,off = 0.693/koff, respectively.
# [5] = biological target: T5, HNE in mature PMN (Homo sapiens, UniProt P08246); assay: Intracellular HNE inhibition in freshly isolated mature PMN; conditions: for potency in PMN compared with U937 cells (in words): PMN 1 h vs U937 0-3 h
# T5 sequence (P08246 30-247 limits assumed): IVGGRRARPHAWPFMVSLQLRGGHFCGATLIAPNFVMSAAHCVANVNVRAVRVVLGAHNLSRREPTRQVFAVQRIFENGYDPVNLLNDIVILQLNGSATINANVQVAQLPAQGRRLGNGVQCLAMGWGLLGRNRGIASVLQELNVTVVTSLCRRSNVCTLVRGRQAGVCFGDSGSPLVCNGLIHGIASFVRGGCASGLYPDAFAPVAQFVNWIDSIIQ
# Experimental: Peripheral venous blood was collected from six healthy donors after informed consent (votum 018-09 of the local ethics committee), and differential blood counts were performed. Neutrophil granulocytes were isolated using the MACSxpress neutrophil isolation kit (Miltenyi Biotec, Bergisch Gladbach, Germany) following the manufacturer’s instructions. Residual erythrocytes were eliminated by hypotonic lysis. Neutrophils were resuspended in PBS with glucose (1 g/L) at a density of 50–100 cells/µL. The purity of the final cell population was analyzed by staining a smear using Pappenheim’s method and counting ≥200 cells using a light microscope.
# as §2, §3, §4
# [6] = biological target: T4, isolated HNE; design: method as in PMID 21791628; conditions: cited from earlier work
compound,measurement,setting,value
"Cc1c(-c2ccnn2C)cc(C(=O)NCc2ccc(S(C)(=O)=O)cn2)c(=O)n1-c1cccc(C(F)(F)F)c1 [Alvelestat, alvelestat]",Ki,[1],0.009 µM
same,effect on HNE activity in the U937 cell culture model (in words),"[2]; 0-26 h, increasing concentrations, alvelestat and sivelestat up to more than 1000-fold above Ki",no detectable effect; also recorded: no measurable effect; also recorded: do not cause detectable intracellular inhibition
same,Ki,[3],0.011 µM
same,half-life of the complex with HNE (in words),[4],seconds to a few minutes
same,effect on HNE in mature PMN (in words),[5]; 1 h incubation,negligible effect
same,koff,[6],0.057 s⁻¹
same,kon,[6]; too fast to be recorded with authors' setup,7e+06 M⁻¹ s⁻¹
"N=C(N)c1ccccc1 [Benzamidine, benzamidine]",Ki,[1],> 1000 µM
same,inhibition of HNE (in words),[1],no inhibition
same,Ki,[3],> 1000 µM
CN(C(=O)c1cc2ccccc2cc1C(=O)C(c1cccc2ccccc12)P(=O)(O)O)C1CCN(C(=O)c2ccccc2)CC1 (centres unmarked) [Cathepsin G Inhibitor],Ki,[1],> 10 µM
same,inhibition of HNE (in words),[1],no inhibition
CCC[C@@H](NC(=O)N1C(=O)C(CC)(CC)[C@@H]1Oc1ccc(C(=O)N2CCN(C)CC2)cc1)c1ccc2c(c1)OCO2 [DMP 777],Ki,[1],0.00025 µM
same,time course of HNE inhibition in U937 cells (in words),[2],inhibit HNE in U937 cells increasingly over the 26 h observation period
same,Ki,[3],0.00034 µM
same,koff,"[4]; koff = Ki × kon, irreversible inhibitors ≈ zero",0.00012 s⁻¹
same,kon,"[4]; pre-steady-state kinetics, HNE 0.6 nM, 37 °C, mean ± SD",4.9 ± 0.4 × 10^5 M^−1 s^−1
same,potency in PMN compared with U937 cells (in words),[5],somewhat less potent
CC(C)[C@@H]1C(=O)N(S(C)(=O)=O)[C@@H]2CCN(C(=O)/C=C/CN3CCCCC3)[C@H]21 [GW311616],time course of HNE inhibition in U937 cells (in words),[2],inhibit HNE in U937 cells increasingly over the 26 h observation period
same,potency in PMN compared with U937 cells (in words),[5],somewhat less potent
